The text below walks through data of US6573378B1, “Antiviral guanine derivatives” (Novartis International Pharmaceutical Ltd., priority 1983, dated 2003).

Values after ≈ are worked out from the molar mass of the structure shown. Counter-ions that a name gives are not always drawn. Some results are limits rather than exact numbers.

The melting point is the temperature, or range, at which the solid turns liquid.

Data set [1] concerns Herpes simplex type 1 virus (HFEM strain). In words: Plaque reduction, Herpes simplex type 1 virus (HFEM strain) in Vero cells (Method 1). In kind it is cell-based. The note with it: 50% reduction in number of virus plaques, 4 days at 37° C.; for IC50: Human alphaherpesvirus 1, Vero, 96 h, read-out: PDD50 Herpes simplex type 1 virus HFEM strain in Vero cells. On the procedure:
(§1) Vero (Arican Green Monkey Kidney) cells were grown to confluence in 24 well multidishes, each well being 1.6 cm in diameter. The cells were infected with Herpes simplex type 1 virus (HFEM strain) and overlaid with 0.5 ml of 0.9% agarose (w/v) in maintenance medium. The test compound, prepared in maintenance medium in concentrations ranging from 100 to 0.3 μg/ml in half-log dilution steps, was added in 0.5 ml volume. The virus infected cultures were then incubated at 37° C. for 4 days before fixing in 4% formaldehyde solution and staining with carbol fuchsin.

Data set [2] deals with Herpes simplex type 1 virus, strain SC16. In words: Virus cytopathic effect (CPE) reduction, Herpes simplex type 1 virus strain SC16 in MRC-5 cells (Method 2). In kind it is cell-based. The note with it: 50% reduction of virus CPE, 3 days at 37° C.; for IC50: Human alphaherpesvirus 1, SC16, MRC5, 72 h, read-out: PDD50 Herpes simplex type 1 virus SC16 strain in MRC-5 cells. The procedure: (§2) MRC-5 cells were infected in suspension with Herpes simplex type 1 virus, strain SC16. The infected cell suspension was dispensed (0.1 ml) in 96 well microtitre plates containing the test drugs in maintenance medium in concentrations ranging from 100 to 0.03 μg/ml in half-log dilution steps (0.1 ml per well). The plates were then icubated at 37° C. for 3 days when the virus cytopathic effect (CPE) in the control wells reached 100%. The plates were fixed in 4% formaldehyde solution and stained with carbol fuchsin. […] Plates using uninfected cells were run in parallel to determine the minimum concentration of test compound which caused cytotoxicity (MTD).

Data set [3] has as its system Herpes simplex type 2 virus (MS strain). Nature of the data set: Plaque reduction, Herpes simplex type 2 virus (MS strain) in Vero cells (Method 1). It is filed as cell-based. The note with it: Human alphaherpesvirus 2, Method 1, plaque reduction, read-out: PDD50 Herpes simplex type 2 virus MS strain in Vero cells. The procedure: as §1
(§3) Compounds were also tested against Herpes simplex type 2 virus (MS strain) in Vero cells using Method 1 and in MRC-5 cells using Method 2. In the latter test, the incubation time was reduced to 24 hours.

Data set [4] shares this test system. In words: Virus CPE reduction, Herpes simplex type 2 virus (MS strain) in MRC-5 cells (Method 2, 24 hours incubation). In kind it is cell-based. As to conditions: Human alphaherpesvirus 2, MRC5, Method 2, CPE reduction, incubation 24 hours, read-out: PDD50 Herpes simplex type 2 virus MS strain in MRC-5 cells. On the procedure: as §2, §3
Data set [5] in a line: Blood concentration of 9-(4-hydroxy-3-hydroxymethylbut-1-yl)guanine in mice after oral administration of derivatives (Method 3). In kind it is in vivo. The note with it: female Balb/C mice, oral gavage 0.2 mmoles/kg of administered compound, blood 15 minutes later, pooled from three mice; analyte 9-(4-hydroxy-3-hydroxymethylbut-1-yl)guanine. On the procedure:
Compounds were administered by oral gavage (0.2 mmoles/kg in 0.1 ml of 1% carboxymethyl cellulose) to 20 g female Balb/C mice which had been starved for 18 hours. Fifteen minutes later, blood was collected from three mice by cardiac puncture using heparinised syringes. Equal aliquots were pooled and an equal volume of 16% trichloroacetic acid added. Following centrifugation (8,500 g) to remove precipitated proteins, the resulting mixture was analysed by high performance liquid chromatography using a C18 Nova-Pak cartridge eluted with Buffer A (50 mM NaH2PO4, pH4.6) and Buffer B (10% Buffer A, 10% water, 80% methanol) in a gradient from 1% to 95% Buffer B. 9-(4-Hydroxy-3-hydroxymethylbut-1-yl)guanine was assayed with a Pye-Unicam PU4021 u.v. detector set at 254 nm.

For `Nc1nc2c(ncn2CCC(CO)CO)c(=O)[nH]1.[Na]` [Example 12, 9-(4-Hydroxy-3-hydroxymethylbut-1-yl)guanine, Sodium Salt], the IC50 turned out to be 2.2 µg/mL in data set [1] and 0.7 µg/mL in data set [2].

`Nc1nc2c(ncn2CCC(COC=O)COC=O)c(=O)[nH]1` [Example 26, 9-(4-Formyloxy-3-formyloxymethylbut-1-yl)guanine] gave a melting point of 195 to 198 °C.

`CC(C)Oc1nc(N)nc2c1ncn2CCC(CO)CO` [Example 38, 2-Amino-9-(4-hydroxy-3-hydroxymethylbut-1-yl)-6-isopropoxypurine] gave a melting point of 111.5 to 113.5 °C.

In turn, `Nc1nc(OCc2ccccc2)c2ncn(CCC(CO)CO)c2n1` [Example 17, 2-Amino-6-benzyloxy-9-(4-hydroxy-3-hydroxymethylbut-1-yl)purine] had a melting point of 146 to 147.5 °C.

With `Nc1nc2c(ncn2CCC(COC(=O)n2ccnc2)COC(=O)n2ccnc2)c(=O)[nH]1` [Example 27, 9-[4-(N-Imidazolylcarbonyloxy)-3-(N-imidazolylcarbonyloxymethyl)-but-1-yl]guanine], the IC50 in data set [1] came out at 13 µg/mL (≈ 29.5 µM); in data set [2], 1.5 µg/mL (≈ 3.4 µM); in data set [3] it was 2.8 µg/mL (≈ 6.34 µM); in data set [4] it was 5.7 µg/mL (≈ 12.9 µM).

As for `CCCCCC(=O)Nc1nc2c(ncn2CCC(CO)CO)c(=O)[nH]1` [Example 37, N^2-Hexanoyl-9-(4-hydroxy-3-hydroxymethylbut-1-yl)guanine], the melting point was 86 to 88 °C.

`CC(=O)Nc1nc2c(ncn2CCC(CO)CO)c(=O)[nH]1` [Example 36, N^2-Acetyl-9-(4-hydroxy-3-hydroxymethylbut-1-yl)guanine] yielded a melting point of 143 to 146 °C.

Consider `N.N.Nc1nc2c(ncn2CCC(CO)COP(=O)(O)O)c(=O)[nH]1` (stereo not shown) [Example 35, 9-(4-Hydroxy-3-hydroxymethylbut-1-yl)guanine 4′-Phosphate Diammonium Salt], for which, in data set [5], the “Concentration of Example 4 in Blood” value stood at 1100 ng/mL.

For the compound `COc1nc(N)nc2c1ncn2CCC(CO)CO` [Example 15, 2-Amino-9-(4-hydroxy-3-hydroxymethylbut-1-yl)-6-methoxypurine], the melting point was in the range of 117 to 119 °C. Besides, the IC50 in data set [1] is greater than 100 µg/mL. Besides, the IC50 in data set [2] is greater than 100 µg/mL. The IC50 in data set [3] was 63 µg/mL (≈ 236 µM). The IC50 in data set [4] amounted to 49 µg/mL (≈ 183 µM).

As for `Nc1nc2c(ncn2CCC(CO)CO)c(=O)[nH]1` [Example 13, 9-(4-Hydroxy-3-hydroxymethylbut-1-yl)guanine, Potassium Salt], in data set [1] (Potassium Salt), the “PDD50 Herpes simplex type 1 virus HFEM strain in Vero cells” value turned out to be 1.7 µg/mL. In data set [2] (Potassium Salt), the “PDD50 Herpes simplex type 1 virus SC16 strain in MRC-5 cells” value was 0.7 µg/mL.

For the compound `CCC(=O)OCC(CCn1cnc2c(=O)[nH]c(N)nc21)COC(=O)CC` [Example 23, 9-(4-Propionyloxy-3-propionyloxymethylbut-1-yl)guanine], the IC50 was greater than 100 µg/mL in data set [1], 25 µg/mL (≈ 68.4 µM) in data set [2], greater than 100 µg/mL in data set [3] and 85 µg/mL (≈ 233 µM) in data set [4].

Take `Nc1nc2c(ncn2CCC(CO)COC(=O)c2ccccc2)c(=O)[nH]1` (stereo not shown) [Example 32, 9-(4-Benzoyloxy-3-hydroxymethylbut-1-yl)guanine]: the melting point lay in the range of 156 to 168 °C. Moreover, the IC50 in data set [1] was found to be 95 µg/mL (≈ 266 µM). Besides, in data set [2], the IC50 was determined as 3 µg/mL (≈ 8.39 µM).

As for `Nc1nc(Oc2ccccc2)c2ncn(CCC(CO)CO)c2n1` [Example 39, 2-Amino-9-(4-hydroxy-3-hydroxymethylbut-1-yl)-6-phenoxypurine], the melting point was in the range of 173 to 175 °C.

As for `CC(=O)OCC(CO)CCn1cnc2c(=O)[nH]c(N)nc21` (stereo not shown) [Example 31, 9-(4-Acetoxy-3-hydroxymethylbut-1-yl)guanine], the melting point lay in the range of 194 to 200 °C. In data set [1], the IC50 worked out at 24 µg/mL (≈ 81.3 µM). For the same compound, the IC50 in data set [2] turned out to be 10 µg/mL (≈ 33.9 µM).

Take `CCC(=O)Nc1nc2c(ncn2CCC(COC(=O)CC)COC(=O)CC)c(=O)[nH]1` [Example 24, N^2-Propionyl-9-(4-propionyloxy-3-propionyloxymethyl-but-1-yl)guanine]: the IC50 in data set [1] was greater than 100 µg/mL; in data set [2], greater than 100 µg/mL; in data set [3] it was greater than 100 µg/mL; in data set [4] it was 65 µg/mL (≈ 154 µM).

In turn, `CC(=O)OCC(CCn1cnc2c(=O)[nH]c(N)nc21)COC(C)=O` [Example 22, 9-(4-Acetoxy-3-acetoxymethylbut-1-yl)guanine] registered a melting point of 202 to 205 °C. Also, in data set [1], the IC50 was greater than 100 µg/mL. Moreover, in data set [2], the IC50 is greater than 100 µg/mL. Moreover, the IC50 in data set [3] is greater than 100 µg/mL. Also, the IC50 in data set [4] amounted to 83 µg/mL (≈ 246 µM).

In turn, `CCOc1nc(N)nc2c1ncn2CCC(CO)CO` [Example 16, 2-Amino-6-ethoxy-9-(4-hydroxy-3-hydroxymethylbut-1-yl)purine] yielded a melting point of 150 to 152 °C.

Compound `CCCCCC(=O)OCC(CO)CCn1cnc2c(=O)[nH]c(N)nc21` (stereo not shown) [Example 33, 9-(4-Hexanoyloxy-3-hydroxymethylbut-1-yl)guanine] had a melting point of 179 to 181 °C.

Regarding `CCCCCC(=O)OCC(CCn1cnc2c(=O)[nH]c(N)nc21)COC(=O)CCCCC` [Example 25, 9-(4-Hexanoyloxy-3-hexanoyloxymethylbut-1-yl)guanine], the melting point is 198.5 to 201 °C. In addition, the IC50 in data set [1] is 1.9 µg/mL (≈ 4.23 µM). For the same compound, in data set [2], the IC50 stood at 1 µg/mL (≈ 2.22 µM). The IC50 in data set [3] amounted to 1.6 µg/mL (≈ 3.56 µM). Moreover, the IC50 in data set [4] turned out to be 0.9 µg/mL (≈ 2 µM).

Consider `Nc1nc2c(ncn2CCC(CO)CO)c(=O)[nH]1` [Example 4, 9-(4-Hydroxy-3-hydroxymethylbut-1-yl)guanine], for which the IC50 in data set [1] came to 1.3 µg/mL (≈ 5.13 µM); in data set [2] it was 0.9 µg/mL (≈ 3.55 µM); in data set [3], 2.3 µg/mL (≈ 9.08 µM); in data set [4], 0.6 µg/mL (≈ 2.37 µM).

The compound `CCCCCCCCCCCCCCCC(=O)OCC(CO)CCn1cnc2c(=O)[nH]c(N)nc21` (stereo not shown) [Example 34, 9-(4-Hexadecanoyloxy-3-hydroxymethylbut-1-yl)guanine] had a melting point of 183 to 191 °C. Besides, the IC50 in data set [1] stood at 16 µg/mL (≈ 32.5 µM). Moreover, in data set [2], the IC50 came out at 2 µg/mL (≈ 4.07 µM).

In the case of `Nc1nc(N)c2ncn(CCC(CO)CO)c2n1` [Example 21, 2,6-Diamino-9-(4-hydroxy-3-hydroxymethylbut-1-yl)purine], the melting point fell in the range of 187 to 190 °C.

With `CC(C)(C)C(=O)OCC(CCn1cnc2c(=O)[nH]c(N)nc21)COC(=O)C(C)(C)C` [Example 30, 9-(4-Pivalyloxy-3-pivalyloxymethylbut-1-yl)guanine], the melting point lay in the range of 225 to 237 °C.
